Source: US11499197B2, “Prognosis method of multiple myeloma” (CENTRE NATIONAL DE LA RECHERCHE SCIENTIFIQUE, priority 2017, dated 2022)
pIC50: −log10 of the molar value.

What was measured:
XG21 = experiment: Cell Titer Glo viability, XG21 HMCL; assay type: cell-based, human; conditions: XG21, CTG viability
Method: (§1) AMO-1 and OPM2 HMCLs were purchased from DSMZ (Braunschweig, Germany), XG1 and XG21 were obtained as described (Moreaux et al., 2011). HMCLs were cultured in RPMI 1640 medium, 10% FCS (control medium). For XG-IL-6 dependent HMCLs 2 ng/ml IL-6 was added. Cells were cultured in 96-well flat-bottom microtiter plates in the presence of a concentration range of selected compounds: AZD7762 and OTSSP167 (Selleck, euromedex), HITOPK032, XL413, SRPIN340 (Sigma), AZ3146, Centrinone B (Tocris). Cell Titer Glo Luminescent Assay (Promega, Madison, Wis., USA) was used to assess cell viability, and the 50% inhibition (IC50) was determined using GraphPad Prism software (http://www.graphpad.com/scientific-software/prism/).
(§2) Statistical comparisons were done with unpaired or paired Student's t-tests. The effect of drug combination was evaluated using the methods developed by Chou and Talalay (Chou and Talalay, 1984) by calculating the combination Index (CI), with CI<1, CI=1, and CI>1 respectively indicating synergism, additive effects, and antagonism. Here we used CI=0.90-1.10 to indicated additivity.

AMO1 HMCL [1] = experiment: Apoptosis (annexin V, PARP cleavage) by flow cytometry; assay type: cell-based, human; conditions: for cell death via apoptosis (annexin) on co-treatment: AMO1, sub-lethal Melphalan or Lenalidomide + inhibitor at IC20, 4 days
Text: FIG. 14 represents graphs showing that inhibitors increase apoptosis (annexin and PARP) in AMO1 cell line; Annexin and PARP were monitored by flow cytometry after 4 days treatments. p-value: *<0.05; **<0.01; ***<0.001.
FIG. 25 represents graphs illustrating that the co-treatments induce cell death and differentially affect DNA damages in AMO1 HMCL. Co-treatment with selected kinase inhibitors at IC20 and Melphalan or Lenalidomide.
(§3) Cells were culture in 12 wells plate for 4 days. Apoptotic cells were detected using phycoerythrin-conjugated Annexin V (PE-annexin V, BD Pharmingen). For the cell cycle and DNA damage, we used the Apoptosis, DNA damage and cell proliferation kit (BD), following the manufacturer's protocol.

OPM2 = experiment: Cell Titer Glo viability, OPM2 HMCL; assay type: cell-based, human; conditions: OPM2, CTG viability
Method: as §1, §2

AMO1 = experiment: Cell Titer Glo viability, AMO1 HMCL; assay type: cell-based, human; conditions: for IC20 / pIC50: AMO1, CTG viability
Method: as §1, §2

[2] = system: primary MM cells from patients; experiment: Primary myeloma cell cytotoxicity (CD138 flow cytometry); assay type: cell-based, human; conditions: N=5 patients, 4 days of treatment
Text: FIG. 16 represents graphs showing the % of CD138+ cells after treatment by AZD7762, OTSSP167 and Centrinone B in 5 different primary MM cells.
FIG. 17 represents graphs showing that the three tested inhibitors reduce % of tumor MM cells without toxicity on normal BM microenvironment cells from patients (N=5). CD138 amount was monitored by flow cytometry after 4 days of treatment.
Bone marrow of patients presenting with previously untreated MM (N=5) at the university hospital of Montpellier was obtained after patients' written informed consent in accordance with the Declaration of Helsinki and agreement of the Montpellier University Hospital Centre for Biological Resources (DC-2008-417). Primary myeloma cells of patients were cultured with or without graded concentrations of selected inhibitors and MMC cytotoxicity evaluated using anti-CD138-Phycoerythrin monoclonal antibody and CD38-Allophycocyanin (Beckman-Coulter) as described (Moreaux et al., 2012).

[3] = system: HMCLs (AMO1, OPM2, XG1, XG21); experiment: HMCL viability, single and co-treatment with conventional MM drugs (CTG); assay type: cell-based, human; conditions: for synergy with lenalidomide / Lenalidomide treatment on co-treatment with kinase inhibitor / synergy with melphalan: inhibitor at IC20; for synergy with lenalidomide / synergy with melphalan: XG1, XG21, AMO1, OPM2; for Lenalidomide treatment on co-treatment with kinase inhibitor: AMO1 and OPM2
Method: as §1, §2
Keeping in mind the main objective of identifying alternative and efficient complementary treatment for MM patients, the inventors next performed co-treatment on HMCLs with commonly used therapeutic drugs in MM (e.g. Melphalan, Lenalidomide, Velcade) and the different kinases inhibitors. In order to fit to the goal of a combination treatment the inventors used an arbitrary […] for all the kinases inhibitors, which the inventors associated with various concentration of the standard therapeutic.

[4] = system: normal BM microenvironment cells from patients; experiment: Toxicity on non-tumoral bone marrow cells in primary patient cultures; assay type: cell-based, human; conditions: N=5 patients, 4 days
Text: CD138 amount was monitored by flow cytometry after 4 days of treatment.

AMO1 HMCL [5] = experiment: Cell cycle analysis by flow cytometry; assay type: cell-based, human; conditions: for cell cycle arrest: AMO1, single agent; for cell cycle arrest on co-treatment with melphalan or lenalidomide: AMO1, 4 days co-treatment
Text: FIG. 15 represents graphs showing the effects of the treatments with inhibitors on cell cycle in AMO1 cells. p-value: *<0.05; **<0.01; ***<0.001.
FIG. 29 represents graphs illustrating that Co-treatments differentially affect cell cycle in AMO1 cell line. Cotreatment with Melphalan or Lenalidomide and A) AZD7762; B) OTSSP167; C) Centrinone B; D) XL413. Cell cycle was monitored by flow cytometry after 4 days co-treatments. p-value: *<0.05; **<0.01; ***<0.001.
as §3

[6] = system: primary Mouse myeloma (5T33vv) and mouse myeloma cell line (5T33vt); experiment: Mouse myeloma cell viability (CTG); assay type: cell-based; conditions: 5T33vv and 5T33vt, CTG after 24, 48 or 96 hours
Method: FIG. 18 represents graphs cell viability of primary Mouse myeloma (5T33vv) and mouse myeloma cell line (5T33vt), monitored by CTG after 24, 48 or 96 hours treatment with indicated inhibitors.

XG1 = experiment: Cell Titer Glo viability, XG1 HMCL; assay type: cell-based, human; conditions: XG1, CTG viability
Method: as §1, §2

XG7 WT and XG7 Mres = experiment: Viability of melphalan sensitive and resistant cell lines (CTG); assay type: cell-based, human; conditions: inhibitor at IC20
Method: FIG. 32 represents a graph of the calculated IC50 for the co-treatment with melphalan and selected kinase inhibitors at IC20. Melphalan sensitive (XG7 WT) and Resistant (XG7 MRes) cell lines were treated for 4 days with the selected kinases inhibitors. Cell viability was monitored by the CTG. p-value: *<0.05; **<0.01; ***<0.001.
The facts that: 1) all drugs tested are actively decreasing HMCLs viability and induce apoptosis; 2) co-treatment with melphalan leads to synergy or potentialized the decrease of cell viability; 3) some of the selected kinases inhibitors can reverse the resistance to lenalidomide in AMO1 HMCL, led us to question the capability of these drugs to reverse or reduce also melphalan resistance. In that purpose, the inventors used a cell line developed in the inventors' laboratory, and that has been culture to resist to melphalan (Mres) compare to its negative control (WT) (FIG. 30). The inventors first tested the capacity of the different inhibitors to reduce cell viability in this model. All tested kinase's inhibitors lower cell viability of the control or the melphalan resistant cell line.

AMO1 HMCL [7] = experiment: DNA damage (γH2AX) by flow cytometry; assay type: cell-based, human; conditions: for γH2AX (DNA damages), used alone: AMO1, 4 days
Text: FIG. 27 represents graphs illustrating that the co-treatments induce cell death and differentially affect DNA damages in AMO1 HMCL.
FIG. 28 represents graphs representing DNA damages following SRPIN340 and AZ3146 co-treatment in AMO1 cell line. γH2AX were monitored by flow cytometry after 4 days treatments. p-value: *<0.05; **<0.01; ***<0.001.
as §3

Row | Compound | pIC50 (XG21) | cell death via apoptosis (annexin) on co-treatment (AMO1 HMCL [1]) | pIC50 (OPM2) | IC20 (AMO1) [nM] | pIC50 (AMO1) | synergy with lenalidomide [3] | cell cycle arrest (AMO1 HMCL [5]) | pIC50 (XG1) | synergy with melphalan [3] | γH2AX (DNA damages), used alone (AMO1 HMCL [7]) | other results
1 | COc1c(Nc2cc(C)[nH]n2)nc(Sc2ccc(S(=O)(=O)Cc3cccc([N+](=O)[O-])c3F)cc2F)nc1N1CCCCC1 [Centrinone-B] | 5.86 | potentialized cell death only with lenalidomide | 6.36 | 24 | 6.38 | synergized with the conventional treatment | arrested the cell cycle in G0/G1 | 6.65 | – | – | number of tumoral cells (CD138+) [2]: reduced the number of tumoral cells; effect on non-tumoral cells [4]: barely affected; cell viability in mouse cellular model of multiple myeloma [6]: less effective on cell viability
2 | N#Cc1c2nc3ccccc3nc2n2ccc(NC(=O)c3cccs3)cc12 [HI)TOPK] | 5.39 | – | 5.30 | 3900 | 5.29 | synergized with the conventional treatment | – | 5.36 | synergized with the conventional treatment | – | melphalan resistance on co-treatment with melphalan (XG7 WT and XG7 Mres): reversed the melphalan resistance; Lenalidomide treatment on co-treatment with kinase inhibitor [3]: potentialized
3 | CC(=O)c1cnc2ccc(-c3cc(Cl)c(O)c(Cl)c3)nc2c1N[C@H]1CC[C@H](CN(C)C)CC1 [OTSSP167] | – | increase cell death via apoptosis | – | – | – | synergized with the conventional treatment | arrested the cells in S phase | – | synergized with the conventional treatment | showed an activity on […]H2AX recruitment when used alone | pIC50 (XG21; Homo sapiens): 8.70; γH2AX (DNA damages) on co-treatment with melphalan (AMO1 HMCL [7]; AMO1, inhibitor at IC20, 4 days): significantly potentialized the melphalan co-treatment by increasing […]H2AX; pIC50 (OPM2; Homo sapiens, OPM-2): 7.80; IC20 (AMO1; Homo sapiens): 5.4 nM; pIC50 (AMO1; Homo sapiens): 8.09; number of tumoral cells (CD138+) [2]: reduced the number of tumoral cells; Lenalidomide treatment on co-treatment with kinase inhibitor [3]: potentialized; effect on non-tumoral cells [4]: barely affected; cell cycle arrest on co-treatment with melphalan or lenalidomide (AMO1 HMCL [5]): no differences between single and co-treatment; cell viability in mouse cellular model of multiple myeloma [6]: demonstrated similar efficiency; pIC50 (XG1; Homo sapiens): 7.92
4 | O=C(Nc1cc(C(F)(F)F)ccc1N1CCCCC1)c1ccncc1 [SRPIN340] | 4.59 | didn't have any significant additional effect on cell death | 4.48 | 30000 | 4.36 | synergized with the conventional treatment | – | 4.52 | – | showed an activity on […]H2AX recruitment when used alone | apoptosis as measured by annexin V staining and PARP clivage (AMO1 HMCL [1]; AMO1, single agent, 2 concentrations surrounding IC50, 4 days): all drugs but SRPIN340/SRPK1 induced apoptosis
5 | Cl.O=c1[nH]c([C@@H]2CCCN2)nc2c1oc1ccc(Cl)cc12 [XL413] | 4.52 | increase cell death via apoptosis | 4.61 | 9400 | 4.70 | – | arrested the cells in S phase | 5.38 | synergized with the conventional treatment | showed an activity on […]H2AX recruitment when used alone | melphalan resistance on co-treatment with melphalan (XG7 WT and XG7 Mres): reversed the melphalan resistance; cell cycle arrest on co-treatment with melphalan or lenalidomide (AMO1 HMCL [5]): no differences between single and co-treatment
6 | Nc1cccc2c1CN(C1CCC(=O)NC1=O)C2=O (stereo not shown) [lenalidomide] | – | – | – | – | – | – | – | – | – | didn't demonstrate any particular effect | Lenalidomide IC50, treatment alone (AMO1; AMO1): undetermined; Lenalidomide effect on viability alone or in combination ([3]; lenalidomide resistant HMCLs XG1 and XG21): no effect of the treatment alone or in combination
7 | N[C@@H](Cc1ccc(N(CCCl)CCCl)cc1)C(=O)O [melphalan] | – | – | – | – | – | – | – | – | – | increased the measured […]H2AX | –
8 | AZ3146 | 5.52 | didn't have any significant additional effect on cell death | 5.72 | 1400 | 5.59 | – | arrested the cell cycle in G0/G1 | 5.92 | – | – | –
